Laboratory results taken from patent publication US12086788B2, “Substituted pyrazines as inhibitors of BTK, and mutants thereof” (Newave Pharmaceutical Inc., priority 2018, dated 2024).
Entries after “also recorded” stand apart in the source; their conditions may differ.

Tests used:
WT BTK [1] = biological target: T1, WT BTK (Homo sapiens, UniProt Q06187); assay: Caliper-based biochemical enzymatic assay (IC50), WT BTK; conditions: 0.5 nM enzyme, ATP 16 μM, room temperature 3 h; read-out: WT BTK IV50 (nM) (irreversible inhibition)
Experimental: (§1) The reaction was then terminated with EDTA, final concentration 20 mM and the phosphorylated reaction product was quantified on a Caliper Desktop Profiler (Caliper LabChip 3000).

WT BTK [2] = biological target: T1, WT BTK; assay: In vitro dialysis assay (irreversibility assay); format: biochemical; conditions: from recovery after 24 h dialysis
Experimental: The compound-enzyme complex was dialyzed against the same buffer supplemented with 40 mM ATP for 24 hr. Cumulative dialysis factor>160,000×. After dialysis, the BTK activity was measured in the presence […] and 1 mM substrate peptide and compared to that in non-dialyzed samples. Assay buffer: 100 mM HEPES, pH7.5; 0.1% BSA, 0.01% Triton-X 100; 5 mM MgCl2; 1 mM DTT.

C481S BTK [3] = biological target: T2, C481S BTK (Homo sapiens, UniProt Q06187, C481S); assay: Caliper-based biochemical enzymatic assay (IC50), C481S BTK; conditions: for IC50: 0.5 nM enzyme, ATP 16 μM, room temperature 3 h, read-out: C481S BTK IC50 (nM) (reversible inhibition)
Experimental: as §1

C481S BTK [4] = biological target: T2, C481S BTK; assay: Reversibility of binding to the C481S BTK enzyme; format: biochemical; conditions: Cysteine residue not available for covalent binding
[5] = test system: basophil activation, B cell receptor activation, and constitutive p-BTK activity in whole blood lysates; conditions: read-out: IC50s for basophil activation, B cell receptor activation, and constitutive p-BTK activity; cited from earlier work
dogs = conditions: even at higher doses; cited from earlier work
rats = conditions: treatment for longer than 7 days; cited from earlier work
mice = conditions: even at higher doses; cited from earlier work
[6] = Phase I clinical trials, formulations containing GDC-0853; cited from earlier work

T2 sequence (Q06187 whole entry C481S): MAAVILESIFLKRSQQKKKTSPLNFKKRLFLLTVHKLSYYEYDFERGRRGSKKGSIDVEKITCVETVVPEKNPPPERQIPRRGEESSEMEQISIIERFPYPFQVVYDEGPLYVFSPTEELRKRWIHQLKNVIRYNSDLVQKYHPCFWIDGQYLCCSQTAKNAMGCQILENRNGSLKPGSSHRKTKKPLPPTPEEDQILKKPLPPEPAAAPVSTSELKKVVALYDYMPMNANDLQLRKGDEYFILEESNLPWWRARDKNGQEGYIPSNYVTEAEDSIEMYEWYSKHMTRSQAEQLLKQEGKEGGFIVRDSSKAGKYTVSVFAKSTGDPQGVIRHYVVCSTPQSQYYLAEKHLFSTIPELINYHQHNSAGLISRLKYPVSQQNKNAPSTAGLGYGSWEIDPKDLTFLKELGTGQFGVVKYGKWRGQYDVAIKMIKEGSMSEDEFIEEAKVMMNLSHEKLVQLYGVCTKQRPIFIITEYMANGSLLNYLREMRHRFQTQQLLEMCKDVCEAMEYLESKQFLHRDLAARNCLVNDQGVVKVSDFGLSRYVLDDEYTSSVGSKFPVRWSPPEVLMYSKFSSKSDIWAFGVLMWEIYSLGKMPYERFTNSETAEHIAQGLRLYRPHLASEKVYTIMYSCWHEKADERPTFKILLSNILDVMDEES
T1 sequence (Q06187 whole entry): as the sequence (Q06187 whole entry C481S) above, with S481C counted along it

| Compound | IC50 (WT BTK [1]) [nM] | Conclusion (WT BTK) (WT BTK [2]) | IC50 (C481S BTK [3]) [nM] | fold more potent than ACT-196 in C481S BTK assay (C481S BTK [3]) | fold more potent than Ibrutinib in C481S BTK assay (C481S BTK [3]) | mode of binding to C481S BTK (C481S BTK [4]) | IC50 [5] [nM] | pancreatic toxicity (dogs) | pancreatic toxicity (rats) | pancreatic toxicity (mice) | tolerability [6] |
| --- | --- | --- | --- | --- | --- | --- | --- | --- | --- | --- | --- |
| C=CC(=O)Nc1cc(Nc2nc(-c3ccnc(N4CCn5c(cc6c5CC(C)(C)C6)C4=O)c3CO)cn(C)c2=O)ccc1N1CCC(N2CCOCC2)CC1C (stereo not drawn) [Example 12, N-(5-((6-(2-(7,7-dimethyl-1-oxo-1,3,4,6,7,8-hexahydro-2H-cyclopenta[4,5]pyrrolo[1,2-a]pyrazin-2-yl)-3-(hydroxymethyl)pyridin-4-yl)-4-methyl-3-oxo-3,4-dihydropyrazin-2-yl)amino)-2-(2-methyl-4-morpholinopiperidin-1-yl)phenyl)acrylamide] | < 1 | irreversible inhibitors; also recorded: Irreversible/covalent inhibition | < 1 |  |  |  |  |  |  |  |  |
| C=CC(=O)Nc1cc(Nc2nc(-c3ccnc(N4CCn5c(cc6c5CC(C)(C)C6)C4=O)c3CO)cn(C)c2=O)ccc1N1CCN(C2COC2)C[C@@H]1C [Example 3, (S)—N-(5-((6-(2-(7,7-dimethyl-1-oxo-1,3,4,6,7,8-hexahydro-2H-cyclopenta[4,5]pyrrolo[1,2-a]pyrazin-2-yl)-3-(hydroxymethyl)pyridin-4-yl)-4-methyl-3-oxo-3,4-dihydropyrazin-2-yl)amino)-2-(2-methyl-4-(oxetan-3-yl)piperazin-1-yl)phenyl)acrylamide] | < 1 | irreversible inhibitors; also recorded: Irreversible/covalent inhibition | < 1 |  |  |  |  |  |  |  |  |
| C=CC(=O)Nc1cc(Nc2nc(-c3ccnc(N4CCn5c(cc6c5CC(C)(C)C6)C4=O)c3CO)cn(C)c2=O)ccc1N1CCN(C)CC1 [Example 2, N-(5-((6-(2-(7,7-dimethyl-1-oxo-1,3,4,6,7,8-hexahydro-2H-cyclopenta[4,5]pyrrolo[1,2-a]pyrazin-2-yl)-3-(hydroxymethyl)pyridin-4-yl)-4-methyl-3-oxo-3,4-dihydropyrazin-2-yl)amino)-2-(4-methylpiperazin-1-yl)phenyl)acrylamide] | 0.25 | irreversible inhibitors; also recorded: Irreversible/covalent inhibition | 1.7 | 477 | 64 | reversibly bind |  |  |  |  |  |
| C=CC(=O)Nc1cc(Nc2nc(-c3ccnc(N4CCn5c(cc6c5CC(C)(C)C6)C4=O)c3C)cn(C)c2=O)ccc1N1CCN(C2COC2)C[C@@H]1C [Example 11, (S)—N-(5-((6-(2-(7,7-dimethyl-1-oxo-1,3,4,6,7,8-hexahydro-2H-cyclopenta[4,5]pyrrolo[1,2-a]pyrazin-2-yl)-3-methylpyridin-4-yl)-4-methyl-3-oxo-3,4-dihydropyrazin-2-yl)amino)-2-(2-methyl-4-(oxetan-3-yl)piperazin-1-yl)phenyl)acrylamide] | < 1 | irreversible inhibitors; also recorded: Irreversible/covalent inhibition | < 1 |  |  |  |  |  |  |  |  |
| C[C@H]1CN(C2COC2)CCN1c1ccc(Nc2cc(-c3ccnc(N4CCn5c(cc6c5CC(C)(C)C6)C4=O)c3CO)cn(C)c2=O)nc1 [GDC-0853] |  | Reversible |  |  |  |  | 2 to 9 | does not occur | pancreatic toxicity | does not occur | well-tolerated |
